The subject of data set [1] is E. multilocularis metacestode vesicles. Description: Metacestode vesicle viability assay (ATP, CellTiter-Glo). It is filed as cell-based, Echinococcus multilocularis. On the procedure:
Viability was assessed after 12 days using the same metacestode vesicles as for the PGI release assay. Triton X-100 was added to each well to a final concentration of 0.1 %. Subsequently the metacestode vesicles were broken mechanically and 50 μL of the supernatant was mixed with 50 μL of CellTiter-Glo® buffer (Promega, Dübendorf, Switzerland). Measurements were performed on a HIDEX Sense microplate reader.
For orientation: In ATP-based viability assays light output follows the ATP content of the culture.

Data set [2] has the same test system. Description: Phosphoglucose isomerase (PGI) release assay (damage-marker release) on metacestode vesicles. The conditions noted are these: 10 μM; for PGI d5 (relative PGI release): 5 days; for PGI d12 (relative PGI release): 12 days. The format is cell-based, Echinococcus multilocularis. How it is done:
In order to quantify the drug-induced damage on whole metacestode vesicles, phosphoglucose isomerase (PGI) assay was performed as described previously ([Stadelmann et al., 2010]) with few adaptations published recently ([Kaethner et al., 2023]). In short, 8 to 12 weeks-old metacestode vesicles were purified using 2 % sucrose with subsequent washes in PBS. Metacestode vesicles were diluted in two volumes of DMEM without phenol red containing penicillin (100 U/mL) and streptomycin (100 μg/mL). […] 0.1 % DMSO was used as a negative solvent control and 0.1 % Triton X-100 was used as a positive total damage control. Metacestode vesicles were incubated under a humid, 5 % CO2 atmosphere at 37 °C. After five and twelve days, supernatant was taken and pictures were made using a Nikon SMZ18 stereo microscope (Nikon, Basel, Switzerland) at 7.5 × magnification. PGI activity in the supernatants was measured on a HIDEX Sense microplate reader (Hidex, Turku, Finland). The corresponding values of the DMSO controls were subtracted from the values of the compounds and then PGI activity was calculated relative to 0.1 % Triton X-100. […] IC50 values were calculated applying the 3 parameter Weibull type 1 in R for each of the three independent experiments ([Ritler et al., 2020]).

Where [3] appears, read: overview screen, 10 μM, singlets, 12 days, relative to DMSO control.
Where [4] appears, read: overview screen, singlets, relative to 0.1 % Triton X-100, DMSO subtracted.
The mark [5] stands for this setting: confirmation screen, 10 μM, triplicates, mean, 12 days.
Where [6] appears, read: confirmation screen, triplicates, mean.

In the case of `Cc1nc(N(C)C(=O)Cc2ccc(-c3ccccn3)cc2)sc1S(N)(=O)=O` [MMV1580486], the “Viability d12 (relative viability)” value in data set [1] (setting [3]) amounted to 136.799%. Besides, in data set [2] (setting [4]), the “PGI d5 (relative PGI release)” value is -0.111% and the “PGI d12 (relative PGI release)” value was 0.7043%.
Turning to `NC[C@H]1O[C@H](O[C@H]2[C@H](O)[C@@H](O[C@H]3O[C@H](CO)[C@@H](O)[C@H](N)[C@H]3O)[C@H](N)C[C@@H]2N)[C@H](N)C[C@@H]1O` [MMV002459], in data set [1] (setting [3]), the “Viability d12 (relative viability)” value is on record as 35.1523%. In data set [2] (setting [4]), the “PGI d5 (relative PGI release)” value is listed as -1.087% and the “PGI d12 (relative PGI release)” value is on record as -12.65%.
The matching figures for `C[C@H](NC(=O)C(=O)Nc1ccccc1C(C)(C)C)C(=O)N[C@@H](CC(=O)O)C(=O)COc1c(F)c(F)cc(F)c1F` [MMV1580794]: 57.1149%, -0.7921% and -19.0747%.
Consider `O=C(Cc1ccccc1F)Nc1nc2ccccc2[nH]1` [MMV1578576], for which the entries for the “Viability d12 (relative viability)” value in data set [1] (setting [5]) and in data set [1] (setting [3]) were 92.12% and 28.1158%, respectively. Besides, the “PGI d5 (relative PGI release)” value is 0.17% in data set [2] (setting [6]) and 4.048% in data set [2] (setting [4]). For the same compound, the “PGI d12 (relative PGI release)” value in data set [2] (setting [6]) was 0.0454%; in data set [2] (setting [4]) it was 84.4551%.
As for `NCc1ccc(S(N)(=O)=O)cc1` [MMV002665], the “Viability d12 (relative viability)” value in data set [1] (10 µM) was 140.59%. Further, in data set [2] (setting [4]), the “PGI d5 (relative PGI release)” value is 0.8805% and the “PGI d12 (relative PGI release)” value is on record as -5.499%.
The matching figures for `CNC(=O)C1O[C@@H](n2cnc3c(NCc4cccc(I)c4)nc(Cl)nc32)[C@H](O)[C@@H]1O` (stereo partly drawn) [MMV1593514]: 79.1378%, -0.4087% and 0.1534%.
Consider `CONC(=N)c1ccc(-c2ccc(-c3ccc(C(=N)NOC)cc3)o2)cc1` [MMV000059], for which the “Viability d12 (relative viability)” value in data set [1] (setting [3]) was 226.694%. For the same compound, in data set [2] (setting [4]), the “PGI d5 (relative PGI release)” value was -1.411% and the “PGI d12 (relative PGI release)” value is -24.9567%.
The matching figures for `CC[C@H](NC(=O)[C@H](C)NC)C(=O)N1C[C@@H](O)C[C@H]1Cc1c(-c2[nH]c3cc(F)ccc3c2C[C@@H]2C[C@H](O)CN2C(=O)[C@H](CC)NC(=O)[C@H](C)NC)[nH]c2cc(F)ccc12` [MMV1557856]: 106.397%, -1.122% and -0.1165%.
Regarding `O=C(NCc1ccc2c3c(cccc13)C(=O)N2)c1cccs1` [MMV1341773], the “Viability d12 (relative viability)” value in data set [1] (setting [3]) was found to be 18.2024%. In addition, in data set [2] (setting [4]), the “PGI d5 (relative PGI release)” value is recorded as -1.3816% and the “PGI d12 (relative PGI release)” value is on record as -12.533%.
Take `COc1cc(C)c2c(Oc3cccc(C(F)(F)F)c3)c(OC)cc(NC(C)CCCN)c2n1.O=C(O)CCC(=O)O` (stereo not drawn) [MMV000043]: the “Viability d12 (relative viability)” value in data set [1] (setting [3]) was found to be 100.948%. Also, in data set [2] (setting [4]), the “PGI d5 (relative PGI release)” value is 8.8572% and the “PGI d12 (relative PGI release)” value is given as -12.8411%.
The matching figures for `CCc1ccccc1OCCN1CCCCCC1` [MMV1633962]: 159.976%, 1.217% and -18.8642%.
The matching figures for `O=C(Nc1nnc(-c2ccc(Cl)cc2)o1)c1ccc(F)cc1` [MMV1782140]: 86.8653%, -3.764% and 9.726%.
On the same counts, the results for `O=C(O)[C@H]1C2CCC(CC2)[C@@H]1Nc1nc(-c2c[nH]c3ncc(F)cc23)ncc1F` [MMV1593516] are 121.454%, 2.198% and -18.5586%.
Turning to `Cc1cc(Nc2ccc(F)cc2)nc(SCc2nc3ccccc3[nH]2)n1` [MMV1582498], the “Viability d12 (relative viability)” value in data set [1] (setting [3]) is listed as 46.2574%. In data set [2] (setting [4]), the “PGI d5 (relative PGI release)” value was determined as 0.3642% and the “PGI d12 (relative PGI release)” value is recorded as 1.096%.
On the same counts, the results for `CCCCCCC1c2ccc(O)cc2Oc2cc(O)ccc21` [MMV1593535] are 92.5147%, 1.318% and -18.7037%.
On the same counts, the results for `CN1CCN(Cc2ccc(-c3cnc4[nH]cc(-c5ccc6[nH]ccc6c5)c4c3)cc2)CC1` [MMV1580482] are 108.591%, 0.2177% and 0.07079%.
For `N=c1n(CCN2CCCCC2)c2ccccc2n1CC(O)COc1ccc(Cl)cc1Cl` (stereo not drawn) [MMV394033], the results for the “Viability d12 (relative viability)” value in data set [1] (setting [5]) and in data set [1] (setting [3]) were 90.34% and 9.628%, respectively. Moreover, the “PGI d5 (relative PGI release)” value in data set [2] (setting [6]) is given as 0.57%; in data set [2] (setting [4]), 6.943%. For the same compound, the figures for the “PGI d12 (relative PGI release)” value in data set [2] (setting [6]) and in data set [2] (setting [4]) were 0.65% and 70.607%, respectively.
As for `O=C(O)c1ccc(-c2ccc(O[C@H]3O[C@H](CO)[C@@H](O)[C@H](O)[C@@H]3O)cc2)cc1` [MMV1633970], in data set [1] (setting [3]), the “Viability d12 (relative viability)” value came to 109.047%. Moreover, in data set [2] (setting [4]), the “PGI d5 (relative PGI release)” value worked out at 0.1129% and the “PGI d12 (relative PGI release)” value was -1.296%.
For `Nc1cc(N)c2nc(-c3ccccc3)c(Nc3ccc(F)cc3)nc2c1` [MMV1581554], the “Viability d12 (relative viability)” value in data set [1] (setting [3]) was found to be 104.705%. Besides, in data set [2] (setting [4]), the “PGI d5 (relative PGI release)” value amounted to 4.452% and the “PGI d12 (relative PGI release)” value is -9.136%.
On the same counts, the results for `Cc1c(F)cccc1NC(=O)Nc1ccc(Cl)c(S(=O)(=O)[C@H]2CCCNC2)c1O` [MMV1581034] are 88.9358%, 1.533% and -0.4746%.
With `Cc1cc(NS(=O)(=O)c2ccc(-c3ccc(F)cc3F)cc2)no1` [MMV1782217], the “Viability d12 (relative viability)” value in data set [1] (setting [3]) came out at 58.3644%. Moreover, in data set [2] (setting [4]), the “PGI d5 (relative PGI release)” value is recorded as -2.099% and the “PGI d12 (relative PGI release)” value is on record as -26.6121%.
`COC(=O)Nc1nc2c(C)cccc2[nH]1` [MMV1782387]: in data set [1] (setting [3]), the “Viability d12 (relative viability)” value was determined as 91.1788%. In data set [2] (setting [4]), the “PGI d5 (relative PGI release)” value is given as -0.1734% and the “PGI d12 (relative PGI release)” value is listed as -20.8652%.
The matching figures for `CCc1cc(CCCOc2c(C)cc(-c3noc(C(F)(F)F)n3)cc2C)on1` [MMV1634556]: 121.169%, 0.6182% and -18.063%.
The matching figures for `CC(C)Oc1ccc(-n2cnc3cc(/C=C\c4ccc(C(C)(C)O)cc4)ccc32)cc1` [MMV1782350]: 72.1416%, -0.1916% and 0.3132%.
Regarding `CCC[C@H](NC(=O)[C@@H]1[C@H]2CCC[C@H]2CN1C(=O)[C@@H](NC(=O)[C@@H](NC(=O)c1cnccn1)C1CCCCC1)C(C)(C)C)C(=O)C(=O)NC1CC1` [MMV1580494], the “Viability d12 (relative viability)” value in data set [1] (setting [3]) came to 83.9614%. In data set [2] (setting [4]), the “PGI d5 (relative PGI release)” value was 0.1247% and the “PGI d12 (relative PGI release)” value is -0.8271%.
The matching figures for `CN(C)[C@@H]1C(=O)C(C(N)=O)=C(O)[C@@]2(O)C(=O)C3=C(O)c4c(O)c(NC(=O)CN5CCCC5)cc(F)c4C[C@H]3C[C@@H]12.Cl.Cl` [MMV1578574]: 18.1189%, -1.676% and -12.2407%.
On to `NC(=O)[C@@H]1CC[C@@H]2CN1C(=O)N2OS(=O)(=O)O` [MMV1613560], for which the “Viability d12 (relative viability)” value in data set [1] (setting [3]) is recorded as 46.8418%. In data set [2] (setting [4]), the “PGI d5 (relative PGI release)” value was -1.526% and the “PGI d12 (relative PGI release)” value is given as -13.4159%.
The matching figures for `CCCNc1ccc(S(=O)(=O)Nc2cc(C)on2)cc1` [MMV1782216]: 105.791%, -2.087% and -24.1037%.
Take `O=c1nc(N2CCN(CC3CCCCC3)CC2)sc2c([N+](=O)[O-])cc(C(F)(F)F)cc12` [MMV1578885]: the “Viability d12 (relative viability)” value in data set [1] (setting [5]) amounted to 97.20%; in data set [1] (setting [3]) it was 20.6104%. Also, the “PGI d5 (relative PGI release)” value is listed as -0.21% in data set [2] (setting [6]) and 15.7367% in data set [2] (setting [4]). In addition, the “PGI d12 (relative PGI release)” value came out at 0.0323% in data set [2] (setting [6]) and 89.9274% in data set [2] (setting [4]).
As to `COc1ccc(C2CNC(=O)C2)cc1OC1CCCC1` (stereo not drawn) [MMV003738], in data set [1] (setting [3]), the “Viability d12 (relative viability)” value is reported as 180.575%. Besides, in data set [2] (setting [4]), the “PGI d5 (relative PGI release)” value is reported as -0.5058% and the “PGI d12 (relative PGI release)” value is on record as -19.6179%.
The matching figures for `CN(Cc1ccc(C(C)(C)C)cc1)Cc1cccc2ccccc12.Cl` [MMV637104]: 73.8114%, -1.862% and -24.2411%.
